These are literature values, as cited in patent US20110159092A1 (MICRO LABS LIMITED, priority 2009, published 2011).

One series concerns bacteria. The note with it: background statement.
In a further series the test system is enterococci. The conditions noted are these: against enterococci.
A further series has as its system staphylococci. The conditions noted are these: against staphylococci.
For another series, the system named is streptococci. The conditions noted are these: majority of strains.

As a reminder, the MIC is the least concentration at which growth counts as inhibited. In the case of `CC(=O)NC[C@H]1CN(c2ccc(N3CCOCC3)c(F)c2)C(=O)O1` [Linezolid, (S)-N-({3-[3-fluoro-4-(morpholin-4-yl)phenyl]-2-oxo-1,3-oxazolidin-5-yl}methyl)acetamide], the MIC in the series with bacteria was 1 to 4 µg/mL. The time-kill result with enterococci is recorded as “bacteriostatic”; in the series with staphylococci it was “bacteriostatic”; in the series with streptococci, “bactericidal”.
